# Reference: patent US12473299B2, “Cross-linked nucleoside and nucleotide using same” (Osaka University, priority 2020, dated 2025)
# In the oligonucleotide strings, read from the 5' end, every base follows the letter of its sugar. An asterisk marks phosphorothioate; unmarked linkages are phosphodiester. Other units and linkages are bracketed, terminal groups are in braces. A string of capitals states the bases alone. [BANA] = BANA-modified thymidine; l = locked nucleic acid (LNA); [HNA] = hexitol nucleic acid; [5mC] = 5-methylcytosine; d = 2'-deoxy (DNA)
# How the values were obtained:
# Assay type in all cases: binding
# [1] = tested on: single-stranded oligo DNA 5′-d(AGCAAAAAACGC)-3′ (SEQ ID No. 19); experiment: Double-strand forming ability (Tm) with single-stranded oligo DNA; conditions: for ssDNA Tm: oligonucleotide 4 μM, 10 mM phosphate buffer pH 7.2, 100 mM NaCl, mean of three measurements; for ssDNA ΔTm/mod.: Tm change per artificially modified nucleic acid base vs 5′-GCGTTTTTTGCT-3′
# Description: (§1) The double-strand forming ability of the oligonucleotides was examined by subjecting the different types of oligonucleotides and the target strands to an annealing treatment to form double strands, and then measuring their Tm values. More specifically, a mixed liquid of each oligonucleotide (final concentration: 4 μM) and a phosphate buffer (10 mM, pH 7.2, 130 μL) containing sodium chloride (final concentration: 100 mM) was bathed in boiling water and then slowly cooled to room temperature. After that, the mixed liquid was cooled to 5° C. under nitrogen stream before starting the measurement. The temperature was raised to 90° C. at a rate of 0.5° C./min while absorbance at 260 nm was plotted at intervals of 0.5° C. The Tm value was calculated using a median method or differentiation (SEQ ID No. 17), and a mean value of three independent measurements was adopted.
# [2] = tested on: single-stranded oligo RNA 5′-r(AGCAAAAAACGC)-3′ (SEQ ID No. 18); experiment: Double-strand forming ability (Tm) with single-stranded oligo RNA; conditions: for ssRNA Tm: oligonucleotide 4 μM, 10 mM phosphate buffer pH 7.2, 100 mM NaCl, mean of three measurements; for RNA Complement ΔTm: difference from the Tm of the sequence (18); for RNA Complement Tm: sequences (18) to (21), as in Example 9; for ssRNA ΔTm/mod.: Tm change per artificially modified nucleic acid base vs 5′-GCGTTTTTTGCT-3′
# [3] = tested on: single-stranded oligo RNA 5′-r([…])-3′ (SEQ ID No. 36); experiment: Double-strand forming ability (Tm) of mMALAT1 antisense oligonucleotides with RNA; conditions: for RNA Complement Tm: as in Example 9; for RNA Complement ΔTm: difference from the Tm of the sequence (26)
# Description: as §1
# Furthermore, the double-strand forming ability for RNA, of each oligonucleotide was assessed in a manner similar to that of Example 9. Two sequences shown in Table 42 below were used as controls (also represented by SEQ ID Nos. 34 and 35, respectively).
# A single-stranded oligo RNA 5′-r([…])-3′ (SEQ ID No. 36) was used as a target strand.
# [4] = tested on: single-stranded oligo DNA 5′-d(AGCAAAYAACGC)-3′; experiment: Base selectivity (Tm, match/mismatch) with single-stranded oligo DNA
# Description: as §1
# (§2) For the above sequences (1) to (5), the double-strand forming ability (binding affinity) was examined in a similar manner using a single-stranded oligo RNA 5′-r([…])-3′ and a single-stranded oligo DNA 5′-d([…])-3′ as target strands.
# (§3) For the single-stranded oligo RNA, Y was one of rA (SEQ ID No. 18), rU (SEQ ID No. 20), rG (SEQ ID No. 21), and rC (SEQ ID No. 22). For the single-stranded oligo DNA, Y was one of dA (SEQ ID No. 19), dT (SEQ ID No. 23), dG (SEQ ID No. 24), and dC (SEQ ID No. 25).
# (§4) In the table, ΔTm was calculated by subtracting the Tm value of the match (dA or rA) from the Tm value of the mismatch.
# [5] = tested on: single-stranded oligo RNA 5′-r(AGCAAAYAACGC)-3′; experiment: Base selectivity (Tm, match/mismatch) with single-stranded oligo RNA
# Description: as §1, §2, §3, §4
# [6] = sequences (1) to (5), label = unit at position 6, match
molecule,measurement,setting,value
"5′-d(GCGTTTTTTGCT)-3′ (DNA, backbone and methylation of C not given here) [native DNA (dT), reference compound]",ssDNA Tm,[1],51 °C
same,ssRNA Tm,[2],48 °C
"5′-d(5^T^^LA^g^t^t^c^a^c^t^g^a^a^T^^LG^5)-3′ (antisense CTAGTTCACTGAATGC; sugars from the 5' end [BANA][BANA]ldddddddddd[BANA]l[BANA], [5mC] at 1, 16, all phosphorothioate, methylation of C not given here) [(22), antisense oligonucleotide against mMALAT1; 5: BANA-^mC3, T: BANA-T3, {circumflex}: PS]",RNA Complement Tm,[3],60.3 °C
same,RNA Complement ΔTm,[3],−1.8 °C
"5′-d(c^t^a^g^t^t^c^a^c^t^g^a^a^t^g^c)-3′ (antisense dC*dT*dA*dG*dT*dT*dC*dA*dC*dT*dG*dA*dA*dT*dG*dC) [(27), control, PS DNA, reference compound]",RNA Complement Tm,[3],44.2 °C
same,RNA Complement ΔTm,[3],−17.9 °C
"5′-d(^LC^^LT^^LA^g^t^t^c^a^c^t^g^a^a^^LT^^LG^^LC)-3′ (antisense CTAGTTCACTGAATGC; sugars from the 5' end l3 d10 l3, all phosphorothioate, methylation of C not given here) [(26), control, LNA gapmer with PS, reference compound]",RNA Complement Tm,[3],62.1 °C
"5′-d(GCGTT3L3TGCT)-3′ (DNA GCGTTTTTTGCT; LNA-T and BANA-T3 modified nucleotides; modified_base (6)..(6) t = BANA-t3; modified_base (7)..(7) t = LNA-t; modified_base (8)..(8) t = BANA-t3) [(20), L=LNA-T, 3=Compound 25 (BANA-T3)]",RNA Complement ΔTm,[2],−3 °C
same,RNA Complement Tm,[2],60 °C
COc1ccc(C(OC[C@H]2OC3CCOC([C@@H]3n3cc(C)c(=O)[nH]c3=O)[C@H]2OP(OCCC#N)N(C(C)C)C(C)C)(c2ccccc2)c2ccc(OC)cc2)cc1 (stereo partly drawn) [compound 19],"ssDNA: Tm, Y = dA",[4]; [6],42 °C
same,"ssDNA: Tm, Y = dT","[4]; sequences (1) to (5), label = unit at position 6, mismatch dT",38 °C
same,"ssDNA: Tm, Y = dC","[4]; sequences (1) to (5), mismatch dC",32 °C
same,"ssDNA: Tm, Y = dG","[4]; sequences (1) to (5), mismatch dG",31 °C
same,"ssDNA: ΔTm, Y = dC","[4]; ΔTm = Tm(mismatch) − Tm(match), mismatch dC",−10 °C
same,"ssDNA: ΔTm, Y = dG","[4]; ΔTm = Tm(mismatch) − Tm(match), mismatch dG",−11 °C
same,"ssDNA: ΔTm, Y = dT","[4]; ΔTm = Tm(mismatch) − Tm(match), mismatch dT",−4 °C
same,base pairing with G,"[5]; introduced into the oligonucleotides, compared with native DNA (dT) (SEQ ID No. 1)",suppressed base pairing with G
same,"ssRNA: Tm, Y = rA",[5]; [6],48 °C
same,"ssRNA: Tm, Y = rC","[5]; sequences (1) to (5), mismatch rC",34 °C
same,"ssRNA: Tm, Y = rG","[5]; sequences (1) to (5), mismatch rG",39 °C
same,"ssRNA: Tm, Y = rU","[5]; sequences (1) to (5), mismatch rU",40 °C
same,"ssRNA: ΔTm, Y = rC","[5]; ΔTm = Tm(mismatch) − Tm(match), mismatch rC",−14 °C
same,"ssRNA: ΔTm, Y = rG","[5]; ΔTm = Tm(mismatch) − Tm(match), mismatch rG",−9 °C
same,"ssRNA: ΔTm, Y = rU","[5]; ΔTm = Tm(mismatch) − Tm(match), mismatch rU",−8 °C
"5′-d(GCGTTHTTTGCT)-3′ (DNA GCGTTTTTTGCT; sugars from the 5' end d5 [HNA]1 d6, backbone not given here) [H=HNA-T, reference compound]",ssDNA ΔTm/mod.,[1],−4 °C
same,ssDNA Tm,[1],47 °C
same,ssRNA ΔTm/mod.,[2],+1 °C
same,ssRNA Tm,[2],49 °C
"5′-d(5^T^^LA^g^t^t^c^a^c^t^g^a^a^T^LG^5)-3′ (antisense CTAGTTCACTGAATGC; BANA and LNA modifications, phosphorothioate linkages; modified_base (1)..(1) c = SANA-mC3; modified_base (2)..(2) t = SANA-t3; modified_base (2)..(13) phosphorothioated; modified_base (3)..(3) a = LNA-a; modified_base (14)..(14) t = SANA-t3; modified_base (15)..(15) g = LNA-g; modified_base (16)..(16) c = SANA-mC3) [(24), antisense oligonucleotide against mMALAT1; 5: BANA-^mC3, T: BANA-T3]",RNA Complement Tm,[3],61.7 °C
same,RNA Complement ΔTm,[3],−0.4 °C
"5′-d(GCGTTL33TGCT)-3′ (DNA GCGTTTTTTGCT; LNA-T and BANA-T3 modified nucleotides; modified_base (6)..(6) t = LNA-t; modified_base (7)..(8) t = BANA-t3) [(19), L=LNA-T, 3=Compound 25 (BANA-T3)]",RNA Complement ΔTm,[2],+1 °C
same,RNA Complement Tm,[2],64 °C
5′-d(GCGTT1TTTGCT)-3′ (DNA GCGTTTTTTGCT; BANA-T1 modified nucleotide; modified_base (6)..(6) t = BANA-t1) [5′-GCGTT1TTTGCT-3′],ssDNA ΔTm/mod.,[1],−10 °C
same,ssDNA Tm,[1],41 °C
same,ssRNA ΔTm/mod.,[2],−4 °C
same,ssRNA Tm,[2],44 °C
"5′-d(5T^LA^g^t^t^c^a^c^t^g^a^a^T^^LG^5)-3′ (antisense CTAGTTCACTGAATGC; BANA and LNA modifications, phosphorothioate linkages; modified_base (1)..(1) c = SANA-mC3; modified_base (2)..(2) t = SANA-t3; modified_base (3)..(3) a = LNA-a; modified_base (4)..(16) phosphorothioated; modified_base (14)..(14) t = SANA-t3; modified_base (15)..(15) g = LNA-g; modified_base (16)..(16) c = SANA-mC3) [(23), antisense oligonucleotide against mMALAT1; 5: BANA-^mC3, T: BANA-T3]",RNA Complement Tm,[3],61.0 °C
same,RNA Complement ΔTm,[3],−1.1 °C
"5′-d(5T^LA^g^t^t^c^a^c^t^g^a^a^T^LG^5)-3′ (antisense CTAGTTCACTGAATGC; BANA and LNA modifications, phosphorothioate linkages; modified_base (1)..(1) c = BANA-mC3; modified_base (2)..(2) t = BANA-t3; modified_base (3)..(3) a = LNA-a; modified_base (3)..(13) phosphorothioated; modified_base (14)..(14) t = BANA-t3; modified_base (15)..(15) g = LNA-g; modified_base (16)..(16) c = BANA-mC3) [(25), antisense oligonucleotide against mMALAT1; 5: BANA-^mC3, T: BANA-T3]",RNA Complement Tm,[3],63.4 °C
same,RNA Complement ΔTm,[3],+1.3 °C
"5′-d(GCGTTLLLTGCT)-3′ (DNA GCGTTTTTTGCT; sugars from the 5' end d5 l3 d4, backbone not given here) [(18), L=LNA-T (LNA), reference compound]",RNA Complement Tm,[2],63 °C
"5′-d(GCG222222GCT)-3′ (DNA GCGTTTTTTGCT; BANA-T2 modified nucleotides; modified_base (4)..(9) t = BANA-t2) [5′-GCG222222GCT-3′, 2=Compound 19 (BANA-T2)]",ssDNA ΔTm/mod.,[1],−0.7 °C
same,ssDNA Tm,[1],47 °C
same,ssRNA ΔTm/mod.,[2],+4.5 °C
same,ssRNA Tm,[2],75 °C
"5′-d(GCGTT33LTGCT)-3′ (DNA GCGTTTTTTGCT; LNA-T and BANA-T3 modified nucleotides; modified_base (6)..(7) t = BANA-t3; modified_base (8)..(8) t =LNA-t) [(21), L=LNA-T, 3=Compound 25 (BANA-T3)]",RNA Complement ΔTm,[2],−2 °C
same,RNA Complement Tm,[2],61 °C
5′-d(GCG111111GCT)-3′ (DNA GCGTTTTTTGCT; BANA-T1 modified nucleotides; modified_base (4)..(9) ANA-t1) [5′-GCG111111GCT-3′],ssDNA ΔTm/mod.,[1],−1.8 °C
same,ssDNA Tm,[1],40 °C
same,ssRNA ΔTm/mod.,[2],+3.3 °C
same,ssRNA Tm,[2],68 °C
